Source: patent US20220192955A1, “AZOXYSTROBIN EFFICACY IN SCALP HEALTH” (The Procter & Gamble Company, priority 2020, published 2022)
Marks after values point to notes of the source that are not given here.

Key:
S100A12 = assay: Scalp tape strip S100A12 protein; assay type: in vivo, human
Protocol: Subjects are enrolled in a double-blind, randomized study for all test groups and have Baseline and Week 3 measurements of scalp health taken for flaking, itch and scalp health endpoints. Subjects take home a test product(s) and are instructed on use of test products throughout the study. Test products are solubilized in a hydroalcoholic leave-on formulation. Azoxystrobin raw material is sourced from AK Scientific Inc. (Union City, Calif.) as >97% pure. Azoxystrobin scalp treatment is prepared from a slurry of azoxystrobin in ethanol that is formulated to 0.1% (w/v) in a base chassis of 50% ethanol, 0.35% Ultrez 21 (rheology modifier), 0.05% neutrol TE and water (q.s.). […] Biomarkers of scalp health, including biomarkers of inflammation, itch, oxidative stress and barrier integrity are assessed by non-invasive tape strip sampling of the scalp surface to determine therapeutic resolution. All biomarkers are analyzed from D-Squame® scalp tape samples that are collected from the scalp of subjects before and after scalp treatment with either azoxystrobin or vehicle (Baseline, and Week 3 respectively). These are extracted and analyzed according to published methods (International Journal of Dermatology 2011, 50, 102-113, incorporated by reference herein). […] S100A12 protein is analyzed to determine the impact of scalp treatment on active inflammatory disease. […]

Histamine = assay: Scalp tape strip histamine (HPLC/MS/MS); assay type: in vivo, human
Protocol: Subjects are enrolled in a double-blind, randomized study for all test groups and have Baseline and Week 3 measurements of scalp health taken for flaking, itch and scalp health endpoints. Subjects take home a test product(s) and are instructed on use of test products throughout the study. Test products are solubilized in a hydroalcoholic leave-on formulation. Azoxystrobin raw material is sourced from AK Scientific Inc. (Union City, Calif.) as >97% pure. Azoxystrobin scalp treatment is prepared from a slurry of azoxystrobin in ethanol that is formulated to 0.1% (w/v) in a base chassis of 50% ethanol, 0.35% Ultrez 21 (rheology modifier), 0.05% neutrol TE and water (q.s.). […]
Biomarkers of scalp health, including biomarkers of inflammation, itch, oxidative stress and barrier integrity are assessed by non-invasive tape strip sampling of the scalp surface to determine therapeutic resolution. All biomarkers are analyzed from D-Squame® scalp tape samples that are collected from the scalp of subjects before and after scalp treatment with either azoxystrobin or vehicle (Baseline, and Week 3 respectively). These are extracted and analyzed according to published methods (International Journal of Dermatology 2011, 50, 102-113, incorporated by reference herein). […]
Histamine is analyzed by gradient reversed-phase HPLC/MS/MS to evaluate scalp itch. […]

human serum albumin = assay: Scalp tape strip barrier integrity: human serum albumin; assay type: in vivo
Protocol: Subjects are enrolled in a double-blind, randomized study for all test groups and have Baseline and Week 3 measurements of scalp health taken for flaking, itch and scalp health endpoints. Subjects take home a test product(s) and are instructed on use of test products throughout the study. Test products are solubilized in a hydroalcoholic leave-on formulation. […] Azoxystrobin scalp treatment is prepared from a slurry of azoxystrobin in ethanol that is formulated to 0.1% (w/v) in a base chassis of 50% ethanol, 0.35% Ultrez 21 (rheology modifier), 0.05% neutrol TE and water (q.s.). Vehicle scalp treatment is prepared similarly without the addition of azoxystrobin raw material. Subjects apply either azoxystrobin or vehicle scalp treatments daily for 3 weeks. […] All biomarkers are analyzed from D-Squame® scalp tape samples that are collected from the scalp of subjects before and after scalp treatment with either azoxystrobin or vehicle (Baseline, and Week 3 respectively). […] Data analysis is conducted by standard statistical methods and calculations. […] Biochemical markers of skin/scalp barrier integrity are analyzed to evaluate improvements on barrier health. […] Human skin analytes (keratin 1, keratin 10, human serum albumin) are simultaneously quantified using a 3-plea Human Skin Panel LINCOplex Kit (Millipore Corp.). Soluble protein is measured using the BCA™ Protein Assay Kit. […]

[1] = 0.1% leave-on daily, Week 3, scalp tape strips

CO/C=C(/C(=O)OC)c1ccccc1Oc1cc(Oc2ccccc2C#N)ncn1 [Azoxystrobin]
S100A12 Results % Change from Baseline (S100A12; [1]): −71.2* % | reduction of S100A12 levels (S100A12; compared to a placebo control): 71% | Histamine Results % Change from Baseline (Histamine; [1]): 23.8% | histamine reduction compared to placebo control or baseline values (in words) (Histamine; 3 weeks of treatment): does not significantly reduce histamine | Human Serum Albumin % Change from Baseline (human serum albumin; [1]): −54.1* % | reduction in human serum albumin (HSA) changed from a baseline (human serum albumin; 3 weeks of treatment): 54%
